Assay results from patent US8980323B2, “Hydrophilic matrix containing poorly water-soluble compound and method for producing the same” (FUJIFILM Corporation, priority 2006, dated 2015).
In brackets after ≈: the same amount, converted by molar mass. Like-named read-outs stand apart in the source and are kept apart here.

Tests used:
[1] = Solubility in 1,1,1,3,3,3-hexafluoro-2-propanol (HFIP); conditions: for solubility: 1,1,1,3,3,3-hexafluoro-2-propanol (HFIP), organic solvent or mixture, thermodynamic from solid
Experimental: The solubility in hexafluoroisopropanol is determined as described below according to the present invention. A mixture is prepared by adding a compound to 1,1,1-3,3,3-hexafluoro-2-propanol while changing the concentration of the compound in a stepwise manner, and the concentration at which precipitation takes place is examined. Thus, the solubility of the compound in 1,1,1-3,3,3-hexafluoro-2-propanol is determined. In addition, a soluble/insoluble state is determined by confirming the presence of a deposit after centrifugation of the above mixture with a micro centrifuge (Chibitan II XX42CF00T produced by Tech-Jam) for 20 seconds.

[2] = Stereo-microscopic observation of drug-containing hydrophilic matrix films and gels (finely-dispersed state / precipitation); assay type: physicochemical; design: key: ∘: contained in a finely-dispersed state; Δ: partially precipitated; conditions: gelatin film cast from HFIP, stereo microscope; for State of drug in gelatin film, Drug/gelatin mass proportion 0.1%: drug/gelatin 0.1%; for State of drug in gelatin film, Drug/gelatin mass proportion 1.0%: drug/gelatin 1.0%; for State of drug in gelatin film, Drug/gelatin mass proportion 5.0%: drug/gelatin 5.0%
Experimental: The term “in a finely-dispersed state” used herein refers to a condition in which the contained poorly water-soluble drug, which is a compound of a size that cannot be detected with a stereo microscope (MZ16A produced by Leica), is uniformly dispersed in a matrix, or a condition in which such a drug is in a molecular dispersion state in a matrix.
Paclitaxel (produced by LCL laboratories) was used as a poorly water-soluble compound. […] 1,1,1,3,3,3-hexafluoro-2-propanol solution (HFIP; 200 μL) containing paclitaxel (1 mg/mL) and gelatin (100 mg/mL; PSK gelatin produced by Nippi Inc.) was coated on a polypropylene dish (2 cm×2 cm×500 μm), followed by drying at an ordinary temperature for 15 hours. Thus, a paclitaxel-containing gelatin film was produced.
Upon observation with a stereo microscope (produced by Leica, MZ16A), precipitation of paclitaxel was not observed. […] In addition, the gel produced with HFIP and subjected to crosslinking with transglutaminase and water swelling was transparent.
Observation was carried out in the same manner as in Example 2.
Drug-containing gelatin films were produced in the same manner as in Example 1 except that paclitaxel used in Example 1 was replaced by drugs with concentrations listed in Table 1 below. Observation was carried out in the same manner as in Example 2. […]

[3] = upper dissolution limit - lower precipitation limit, samples at 30, 50, 100, 200, 500 mg/ml

SMILES | solubility [1] | State of drug in gelatin film, Drug/gelatin mass proportion 0.1% [2] | State of drug in gelatin film, Drug/gelatin mass proportion 1.0% [2] | State of drug in gelatin film, Drug/gelatin mass proportion 5.0% [2] | Solubility in HFIP [1] | Solubility in HFIP [1, 3]
CC12CCC(C(=O)C1=O)C2(C)C (centres unmarked) [Camphorquinone] | 200 to 500 mg/mL (≈ 1200 to 3010 mM) | ∘ | ∘ | ∘ | – | –
CC(=O)Oc1ccccc1C(=O)O [Aspirin] | 200 to 500 mg/mL (≈ 1110 to 2780 mM) | ∘ | ∘ | ∘ | – | –
C=C1CC[C@H](O)C/C1=C/C=C1\CCC[C@]2(C)[C@@H]([C@H](C)CCCC(C)C)CC[C@@H]12 [Vitamin D3] | – | ∘ | ∘ | ∘ | – | 200 to 500 mg/mL
CN(C)c1ccc(N=Nc2ccccc2)cc1 [Methyl yellow] | – | ∘ | ∘ | Precipitated | – | 50 to 100 mg/mL
O=C1NC(=O)C(c2ccccc2)(c2ccccc2)N1 [Phenytoin] | 50 to 100 mg/mL (≈ 198 to 396 mM) | ∘ | ∘ | Precipitated | – | –
CCN(CC)c1ccc2c(C)cc(=O)oc2c1 [Coumarin 1] | – | ∘ | ∘ | ∘ | – | 200 to 500 mg/mL

Further lines, with some results ahead:

solubility [1] | State of drug in gelatin film, Drug/gelatin mass proportion 0.1% [2] | State of drug in gelatin film, Drug/gelatin mass proportion 1.0% [2] | State of drug in gelatin film, Drug/gelatin mass proportion 5.0% [2] | Solubility in HFIP [1] | SMILES | Solubility in HFIP [1, 3]
100 to 200 mg/mL (≈ 124 to 248 mM) | ∘ | ∘ | ∘ | – | CC(=O)O[C@@]12CO[C@@H]1C[C@H](O)[C@@]1(C)C(=O)[C@H](O)C3=C(C)[C@@H](OC(=O)[C@H](O)[C@@H](NC(=O)OC(C)(C)C)c4ccccc4)C[C@@](O)([C@@H](OC(=O)c4ccccc4)[C@H]21)C3(C)C [Docetaxel] | –
– | ∘ | Precipitated | Precipitated | 30 to 50 mg/mL | CCN(CC)c1ccc2cc(-c3nc4ccccc4s3)c(=O)oc2c1 [Coumarin 6] | –
200 to 500 mg/mL (≈ 234 to 586 mM) | ∘ | ∘ | ∘ | – | CC(=O)O[C@H]1C(=O)[C@@]2(C)[C@H]([C@H](OC(=O)c3ccccc3)[C@]3(O)C[C@H](OC(=O)[C@H](O)[C@@H](NC(=O)c4ccccc4)c4ccccc4)C(C)=C1C3(C)C)[C@]1(OC(C)=O)CO[C@@H]1C[C@@H]2O [Paclitaxel] | 200 to 500 mg/mL
200 to 500 mg/mL (≈ 219 to 547 mM) | – | – | – | – | CO[C@H]1C[C@@H]2CC[C@@H](C)[C@@](O)(O2)C(=O)C(=O)N2CCCC[C@H]2C(=O)O[C@H]([C@H](C)C[C@@H]2CC[C@@H](O)[C@H](OC)C2)CC(=O)[C@H](C)/C=C(\C)[C@@H](O)[C@@H](OC)C(=O)[C@H](C)C[C@H](C)/C=C/C=C/C=C/1C [Rapamycin] | –
